# Laboratory results as given in patent US20070166246A1, “Composition for oral cavity” (TOYO SHINYAKU CO., LTD., priority 2004, published 2007).
# Tested on: blood flow in the lower gingiva
# Test: Blood flow improvement in the gingiva using tablets (Example 3)
# Assay type: in vivo, human
# Conditions: gradually dissolved in the mouth (two tablets, about 2 mg extract; vitamin E 100 mg alone), four volunteers, mean ± standard deviation
# Procedure: Next, using the tablets, an experiment was conducted with respect to the effect of improving blood flow in a tissue (the gingiva) of the mouth through the cooperation of four of the five volunteers in Example 1. More specifically, first, the volunteers put two tablets in their mouths, and ingested the tablets into the body while gradually dissolving the tablets in their mouths. Next, at predetermined times (five minutes and 15 minutes) after completion of ingestion of the tablets, the blood flow in the lower gingiva was measured with a blood flow meter. It should be noted that the blood flow meter and others that were used herein are the same as those in Example 1. Moreover, as an example of a substance that improves blood flow, vitamin E (100 mg) alone was ingested while being gradually dissolved in the mouth, and the blood flow was also measured. Furthermore, the tablets containing the pine bark extract (two tablets) were ingested by being swallowed at one gulp with 10 mL of distilled water, instead of being gradually dissolved in the mouth, and the blood flow was also measured.
# The results of the blood flow measurement are shown as relative values, taking the measurement results of the blood flow measurement performed before putting the tablets in the mouth as 100. […]
substance,measurement,setting,value
vitamin E,"blood flow in the lower gingiva, relative value (before putting the tablets in the mouth = 100)",5 min after ingestion,116.99 ± 14.39
same,"blood flow in the lower gingiva, relative value (before putting the tablets in the mouth = 100)",15 min after ingestion,105.63 ± 16.16
